In series [1] the target is T1, Serine/threonine-protein kinase Nek9 (Homo sapiens) (UniProt Q8TD19).
T1 sequence (whole entry): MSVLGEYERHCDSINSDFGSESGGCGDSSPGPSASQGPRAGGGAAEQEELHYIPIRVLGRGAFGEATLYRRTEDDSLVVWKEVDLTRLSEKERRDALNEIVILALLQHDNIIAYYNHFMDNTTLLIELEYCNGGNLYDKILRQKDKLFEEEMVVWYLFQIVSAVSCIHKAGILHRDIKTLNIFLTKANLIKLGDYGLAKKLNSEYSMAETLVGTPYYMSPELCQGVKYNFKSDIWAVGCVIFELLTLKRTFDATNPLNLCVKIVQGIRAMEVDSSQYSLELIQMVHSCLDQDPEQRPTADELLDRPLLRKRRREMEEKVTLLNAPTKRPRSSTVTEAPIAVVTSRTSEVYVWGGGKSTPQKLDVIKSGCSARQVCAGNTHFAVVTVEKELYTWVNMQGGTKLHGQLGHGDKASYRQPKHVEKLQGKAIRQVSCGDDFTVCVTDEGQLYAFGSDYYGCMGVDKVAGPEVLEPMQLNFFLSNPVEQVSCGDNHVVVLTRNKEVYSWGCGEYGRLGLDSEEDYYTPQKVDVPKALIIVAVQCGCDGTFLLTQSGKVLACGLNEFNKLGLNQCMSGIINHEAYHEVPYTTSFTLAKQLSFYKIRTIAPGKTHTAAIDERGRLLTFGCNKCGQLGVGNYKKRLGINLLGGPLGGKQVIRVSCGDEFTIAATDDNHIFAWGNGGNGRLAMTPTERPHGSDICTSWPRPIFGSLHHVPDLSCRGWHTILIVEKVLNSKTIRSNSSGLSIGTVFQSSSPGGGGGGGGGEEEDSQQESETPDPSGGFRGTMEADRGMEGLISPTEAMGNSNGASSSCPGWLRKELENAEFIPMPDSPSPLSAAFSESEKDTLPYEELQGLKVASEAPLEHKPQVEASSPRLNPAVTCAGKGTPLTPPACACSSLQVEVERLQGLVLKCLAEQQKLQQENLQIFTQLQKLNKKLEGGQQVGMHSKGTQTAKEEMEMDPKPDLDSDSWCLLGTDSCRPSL
As to the kind of experiment: NEK9 Kinase screen. The settings on record: Compound concentration 1.0 uM.

Series [2] has as its target Serine/threonine-protein kinase WNK2 (Homo sapiens) (UniProt Q9Y3S1). As to the kind of experiment: WNK2 Kinase screen. The settings on record: Compound concentration 1.0 uM.
Series [3] has as its target T2, Mitogen-activated protein kinase kinase kinase 7 (Homo sapiens) (UniProt O43318).
T2 sequence (whole entry): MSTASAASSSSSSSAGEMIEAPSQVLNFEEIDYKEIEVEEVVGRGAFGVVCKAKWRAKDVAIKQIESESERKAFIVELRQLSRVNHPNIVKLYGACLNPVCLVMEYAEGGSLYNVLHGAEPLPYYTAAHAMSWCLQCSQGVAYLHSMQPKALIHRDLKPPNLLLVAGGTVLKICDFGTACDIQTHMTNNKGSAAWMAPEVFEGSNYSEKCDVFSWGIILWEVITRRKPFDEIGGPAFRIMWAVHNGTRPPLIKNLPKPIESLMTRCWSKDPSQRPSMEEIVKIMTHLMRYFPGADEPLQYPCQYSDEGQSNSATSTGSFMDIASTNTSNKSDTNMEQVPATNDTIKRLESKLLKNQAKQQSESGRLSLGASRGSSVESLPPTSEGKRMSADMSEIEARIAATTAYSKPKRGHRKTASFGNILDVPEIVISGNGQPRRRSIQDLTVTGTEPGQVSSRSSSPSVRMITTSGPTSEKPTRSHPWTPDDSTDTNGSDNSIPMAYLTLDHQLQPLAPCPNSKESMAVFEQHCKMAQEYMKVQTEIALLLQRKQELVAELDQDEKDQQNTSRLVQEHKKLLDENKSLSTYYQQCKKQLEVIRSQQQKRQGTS
Briefly: MAP3K7/MAP3K7IP1 (TAK1-TAB1) Kinase screen. The settings on record: Compound concentration 1.0 uM.

The target of series [4] is Mitogen-activated protein kinase 3 (Homo sapiens) (UniProt P27361). Briefly: MAPK3 (ERK1) Kinase screen. The settings on record: Compound concentration 1.0 uM.
Mitogen-activated protein kinase 3 (Homo sapiens), sequence (P27361 whole entry): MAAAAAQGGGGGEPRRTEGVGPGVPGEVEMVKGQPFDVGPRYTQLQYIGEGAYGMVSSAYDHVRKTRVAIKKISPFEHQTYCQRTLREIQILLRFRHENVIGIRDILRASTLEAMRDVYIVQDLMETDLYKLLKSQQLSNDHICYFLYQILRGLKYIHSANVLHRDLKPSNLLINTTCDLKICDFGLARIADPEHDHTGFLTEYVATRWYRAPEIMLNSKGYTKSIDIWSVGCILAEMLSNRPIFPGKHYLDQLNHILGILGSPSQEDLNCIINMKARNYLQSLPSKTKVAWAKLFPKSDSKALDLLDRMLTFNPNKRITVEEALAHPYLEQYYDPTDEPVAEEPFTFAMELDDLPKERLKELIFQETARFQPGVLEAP
Series [5] has as its target Sodium-dependent noradrenaline transporter (Homo sapiens, UniProt P23975).
For series [6], the target named is Tyrosine-protein kinase JAK2 (Homo sapiens) (UniProt O60674). As to the kind of experiment: JAK2 JH1 JH2 Kinase screen. The settings on record: Compound concentration 1.0 uM.
In series [7] the target is Melanocortin receptor 5 (Homo sapiens) (UniProt P33032). As to the kind of experiment: Inhibition of Melanocortin MC5 at 10 µM in the Eurofins-Panlabs radioligand binding assay (Eurofins_assay_251400). Also noted: ligand concentration 0.035 nM. The settings on record: Compound concentration 10.0 uM.
Melanocortin receptor 5 (Homo sapiens), sequence (P33032 whole entry): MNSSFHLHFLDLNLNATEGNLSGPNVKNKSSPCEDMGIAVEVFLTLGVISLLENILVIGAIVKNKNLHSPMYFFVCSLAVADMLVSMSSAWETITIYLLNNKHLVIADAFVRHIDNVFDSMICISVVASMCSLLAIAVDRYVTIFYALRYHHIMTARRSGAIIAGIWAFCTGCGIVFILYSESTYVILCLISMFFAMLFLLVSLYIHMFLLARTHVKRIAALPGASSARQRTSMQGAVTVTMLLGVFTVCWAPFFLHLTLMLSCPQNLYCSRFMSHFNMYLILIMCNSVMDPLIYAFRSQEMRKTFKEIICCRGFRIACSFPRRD
Series [8] concerns the target Protein kinase C alpha type (Homo sapiens) (UniProt P17252). As to the kind of experiment: PRKCA (PKC alpha) Kinase screen. The settings on record: Compound concentration 1.0 uM.
Series [9] addresses Rho-associated protein kinase 2 (Homo sapiens) (UniProt O75116). Briefly: ROCK2 Kinase screen. The settings on record: Compound concentration 1.0 uM.
Series [10] concerns the target MAO-A (amine oxidase [flavin-containing] A) (Homo sapiens, UniProt P21397). Briefly: Inhibition of Monoamine Oxidase MAO-A at compound concentration of 10.0 uM in the Eurofins-Panlabs enzyme assay (Eurofins_assay_140010). The settings on record: recombinant human MAO-A expressed in insect Hi5 cells, probe kynuramine (50 uM), compound concentration 10 uM. Also on record: substrate with concentration 50 uM Kynuramine, incubation time 60 min, incubation temperature 37 C.

Molecules are shown by their SMILES.

Sodium-dependent noradrenaline transporter, sequence (P23975 whole entry): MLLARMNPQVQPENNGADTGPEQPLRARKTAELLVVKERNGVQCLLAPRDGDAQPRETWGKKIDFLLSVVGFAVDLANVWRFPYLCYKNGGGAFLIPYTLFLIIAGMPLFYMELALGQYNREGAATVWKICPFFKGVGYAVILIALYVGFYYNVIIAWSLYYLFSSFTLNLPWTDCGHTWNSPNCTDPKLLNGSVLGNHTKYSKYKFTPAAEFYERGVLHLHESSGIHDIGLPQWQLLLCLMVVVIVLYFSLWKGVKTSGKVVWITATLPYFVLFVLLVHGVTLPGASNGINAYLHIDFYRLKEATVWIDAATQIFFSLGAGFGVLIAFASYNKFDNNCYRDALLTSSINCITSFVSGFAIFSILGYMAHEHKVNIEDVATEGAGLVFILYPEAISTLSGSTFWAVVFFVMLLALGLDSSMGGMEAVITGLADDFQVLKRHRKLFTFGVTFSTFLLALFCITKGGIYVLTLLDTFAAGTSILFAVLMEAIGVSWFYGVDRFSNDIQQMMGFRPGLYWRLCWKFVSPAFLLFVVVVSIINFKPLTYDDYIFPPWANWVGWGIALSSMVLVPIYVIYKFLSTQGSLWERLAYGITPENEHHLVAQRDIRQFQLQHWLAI
Rho-associated protein kinase 2 (Homo sapiens), sequence (O75116 whole entry, looked up): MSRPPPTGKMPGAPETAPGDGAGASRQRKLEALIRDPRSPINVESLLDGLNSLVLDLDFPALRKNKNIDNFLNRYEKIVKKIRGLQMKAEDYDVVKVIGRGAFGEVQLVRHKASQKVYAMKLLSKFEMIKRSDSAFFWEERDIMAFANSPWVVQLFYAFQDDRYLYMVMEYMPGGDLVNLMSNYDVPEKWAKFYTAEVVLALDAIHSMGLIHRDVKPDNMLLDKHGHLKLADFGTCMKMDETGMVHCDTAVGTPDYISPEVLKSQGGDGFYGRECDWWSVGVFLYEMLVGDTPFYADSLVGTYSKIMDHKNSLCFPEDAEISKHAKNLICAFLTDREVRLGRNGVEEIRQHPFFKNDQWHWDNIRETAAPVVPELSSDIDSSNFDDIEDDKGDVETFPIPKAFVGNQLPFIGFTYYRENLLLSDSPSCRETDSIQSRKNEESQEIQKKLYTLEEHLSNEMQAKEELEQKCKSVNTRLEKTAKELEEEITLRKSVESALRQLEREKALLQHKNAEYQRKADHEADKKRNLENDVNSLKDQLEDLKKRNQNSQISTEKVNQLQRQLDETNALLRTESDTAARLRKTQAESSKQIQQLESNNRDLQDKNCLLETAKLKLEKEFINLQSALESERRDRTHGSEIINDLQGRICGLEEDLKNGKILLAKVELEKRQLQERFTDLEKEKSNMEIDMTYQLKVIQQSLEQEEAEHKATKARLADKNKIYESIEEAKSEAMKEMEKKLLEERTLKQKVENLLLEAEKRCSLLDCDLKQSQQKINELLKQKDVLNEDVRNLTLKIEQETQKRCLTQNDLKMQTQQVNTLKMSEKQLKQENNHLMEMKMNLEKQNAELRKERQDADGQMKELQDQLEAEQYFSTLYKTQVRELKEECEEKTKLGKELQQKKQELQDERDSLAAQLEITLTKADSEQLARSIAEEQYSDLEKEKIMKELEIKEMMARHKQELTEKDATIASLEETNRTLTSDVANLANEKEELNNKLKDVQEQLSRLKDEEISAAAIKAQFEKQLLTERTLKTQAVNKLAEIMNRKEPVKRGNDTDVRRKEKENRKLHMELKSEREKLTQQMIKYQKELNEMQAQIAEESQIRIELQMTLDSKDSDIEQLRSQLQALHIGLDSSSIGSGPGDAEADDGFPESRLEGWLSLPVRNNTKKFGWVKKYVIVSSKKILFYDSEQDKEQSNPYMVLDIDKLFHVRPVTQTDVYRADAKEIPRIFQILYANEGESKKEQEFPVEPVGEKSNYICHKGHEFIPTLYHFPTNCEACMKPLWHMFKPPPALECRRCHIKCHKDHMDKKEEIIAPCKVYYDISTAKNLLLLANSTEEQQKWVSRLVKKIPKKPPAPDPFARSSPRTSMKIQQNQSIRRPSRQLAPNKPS
Serine/threonine-protein kinase WNK2 (Homo sapiens), sequence (Q9Y3S1 whole entry): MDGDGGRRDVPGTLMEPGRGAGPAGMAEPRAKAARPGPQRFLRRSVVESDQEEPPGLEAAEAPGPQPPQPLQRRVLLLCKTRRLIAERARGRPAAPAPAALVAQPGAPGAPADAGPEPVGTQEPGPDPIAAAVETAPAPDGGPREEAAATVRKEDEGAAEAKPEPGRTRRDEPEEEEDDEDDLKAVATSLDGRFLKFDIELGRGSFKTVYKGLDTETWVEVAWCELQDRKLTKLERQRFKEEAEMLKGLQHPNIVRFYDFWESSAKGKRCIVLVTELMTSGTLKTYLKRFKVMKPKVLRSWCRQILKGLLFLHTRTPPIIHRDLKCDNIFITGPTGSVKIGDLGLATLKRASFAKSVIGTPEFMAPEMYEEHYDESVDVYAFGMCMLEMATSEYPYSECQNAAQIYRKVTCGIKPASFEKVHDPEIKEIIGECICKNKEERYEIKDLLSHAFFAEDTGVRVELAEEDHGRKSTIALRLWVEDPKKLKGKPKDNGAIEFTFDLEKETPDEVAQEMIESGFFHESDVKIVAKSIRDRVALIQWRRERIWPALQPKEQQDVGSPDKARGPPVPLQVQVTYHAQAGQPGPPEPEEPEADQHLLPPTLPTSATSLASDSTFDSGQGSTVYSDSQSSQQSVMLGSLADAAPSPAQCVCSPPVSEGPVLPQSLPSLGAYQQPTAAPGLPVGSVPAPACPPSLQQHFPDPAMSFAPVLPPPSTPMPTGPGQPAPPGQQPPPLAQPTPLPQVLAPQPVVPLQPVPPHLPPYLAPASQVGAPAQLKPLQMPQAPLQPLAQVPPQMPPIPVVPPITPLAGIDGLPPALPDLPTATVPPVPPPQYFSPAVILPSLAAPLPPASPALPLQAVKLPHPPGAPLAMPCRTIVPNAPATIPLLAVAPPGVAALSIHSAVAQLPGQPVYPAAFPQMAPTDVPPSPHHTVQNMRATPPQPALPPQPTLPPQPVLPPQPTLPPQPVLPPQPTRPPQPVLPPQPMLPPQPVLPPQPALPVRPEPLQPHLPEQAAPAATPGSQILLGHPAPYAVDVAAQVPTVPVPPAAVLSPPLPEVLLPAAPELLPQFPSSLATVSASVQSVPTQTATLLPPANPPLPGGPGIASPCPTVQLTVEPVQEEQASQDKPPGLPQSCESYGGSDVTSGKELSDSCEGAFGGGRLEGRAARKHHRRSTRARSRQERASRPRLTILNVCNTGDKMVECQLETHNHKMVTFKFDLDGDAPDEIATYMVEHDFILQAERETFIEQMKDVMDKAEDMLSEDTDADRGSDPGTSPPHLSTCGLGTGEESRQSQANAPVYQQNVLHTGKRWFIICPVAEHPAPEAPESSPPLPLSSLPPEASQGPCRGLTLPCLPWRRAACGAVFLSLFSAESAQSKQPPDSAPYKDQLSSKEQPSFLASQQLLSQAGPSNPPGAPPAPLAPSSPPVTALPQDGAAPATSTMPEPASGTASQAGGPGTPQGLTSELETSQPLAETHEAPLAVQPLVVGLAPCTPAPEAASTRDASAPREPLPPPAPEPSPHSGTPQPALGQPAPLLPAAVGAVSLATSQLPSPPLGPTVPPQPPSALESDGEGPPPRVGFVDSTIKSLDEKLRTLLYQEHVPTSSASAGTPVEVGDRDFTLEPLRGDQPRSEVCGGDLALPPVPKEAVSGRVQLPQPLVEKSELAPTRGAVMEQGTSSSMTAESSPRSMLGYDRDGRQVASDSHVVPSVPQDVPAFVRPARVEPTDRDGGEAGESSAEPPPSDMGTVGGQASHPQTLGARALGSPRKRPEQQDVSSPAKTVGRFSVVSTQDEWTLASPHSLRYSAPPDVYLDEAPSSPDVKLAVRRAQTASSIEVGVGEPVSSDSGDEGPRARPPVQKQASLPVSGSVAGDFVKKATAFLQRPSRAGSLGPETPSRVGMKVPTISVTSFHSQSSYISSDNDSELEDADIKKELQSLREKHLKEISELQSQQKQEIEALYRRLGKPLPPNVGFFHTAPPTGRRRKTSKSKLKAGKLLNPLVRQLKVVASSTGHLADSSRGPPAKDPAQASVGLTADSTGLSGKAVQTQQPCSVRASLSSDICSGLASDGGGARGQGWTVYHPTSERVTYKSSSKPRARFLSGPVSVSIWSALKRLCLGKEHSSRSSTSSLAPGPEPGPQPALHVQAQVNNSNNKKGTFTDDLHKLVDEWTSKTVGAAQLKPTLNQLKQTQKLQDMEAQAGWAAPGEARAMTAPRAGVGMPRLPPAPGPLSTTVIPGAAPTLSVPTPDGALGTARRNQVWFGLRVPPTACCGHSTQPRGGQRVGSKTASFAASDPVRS

By inhibition is commonly meant the change of the read-out against control, counted positive when it falls. Take `C[C@@H]1CN(c2cc(-c3n[nH]c4ccc(OC5(C)CC5)cc34)ncn2)C[C@H](C)O1` [MLi-2]: the inhibition is -0.999% in series [1]; -1.69% in series [2]; -4.42% in [3]; 18.7% in [4]; 6% in [5] (Compound concentration 0.01 uM); 8% in [5] (Compound concentration 0.1 uM). Moreover, the inhibition in series [5] (Compound concentration 1.0 uM) was 15%; in series [5] (Compound concentration 10.0 uM), 77%; in [6], -4.32%; in series [7], -3%; in series [8] it was -4.08%; in series [9] it was 10.2%. For the same compound, the inhibition at 60 min, 10 µM in series [10] was 2% (not active).

The values are drawn from ChEMBL document CHEMBL4507291 (2021).
